Assay results reported in patent US6933108B2 (priority 1999, dated 2005).
Entries after “also recorded” stand apart in the source; their conditions may differ.

Tests used:
EBO-Z pseudotype virus = format: cell-based, Ebola-Zaire virus
Ampho luciferase virus = format: cell-based, amphotropic murine leukemia virus
MBG pseudotype virus = format: cell-based, Marburg virus
[1] = test system: Filoviruses, including the Marburg and Ebola viruses; conditions: cited from earlier work
FR-α = FR-α (Homo sapiens, UniProt P15328); conditions: cited from earlier work
FR-α, sequence (P15328 25-234): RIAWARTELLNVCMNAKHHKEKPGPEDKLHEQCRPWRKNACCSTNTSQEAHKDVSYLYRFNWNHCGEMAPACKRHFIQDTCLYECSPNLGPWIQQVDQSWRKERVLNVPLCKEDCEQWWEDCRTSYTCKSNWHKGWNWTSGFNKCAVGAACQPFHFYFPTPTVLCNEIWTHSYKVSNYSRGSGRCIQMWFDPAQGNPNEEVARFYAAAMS

Nc1nc2ncc(CNc3ccc(C(=O)N[C@@H](CCC(=O)O)C(=O)O)cc3)nc2c(=O)[nH]1 [folic acid]
entry by EBO-Z virus (EBO-Z pseudotype virus): inhibited significantly; also recorded: specifically inhibited | entry by Ampho luciferase pseudotype (Ampho luciferase virus): very slight alteration; also recorded: did not significantly decrease; also recorded: not Ampho | entry by MBG luciferase virus (MBG pseudotype virus): specifically inhibited | reduction of MBG virus entry (MBG pseudotype virus): ~80%

NC(=O)c1ncn([C@@H]2O[C@H](CO)[C@@H](O)[C@H]2O)n1 [ribavirin]
in vitro effect against filoviruses [1]: no in vitro effect

CN1c2c(nc(N)[nH]c2=O)NCC1CNc1ccc(C(=O)N[C@@H](CCC(=O)O)C(=O)O)cc1 (stereo partly drawn) [5-methyltetrahydrofolic acid]
binding affinity to FR-α (FR-α): high affinity
